# Reference: US20240317762A1, “PHTHALAZINONE-BASED PARP-1 INHIBITORS” (Oregon Health & Science University, priority 2021, published 2024)
# “And” between values parts separate entries of the source, which are not always exact repeats. Equal entries are not always repeated.
# Experiments:
# [1] = target: R878A PARP-1 (Homo sapiens, UniProt P09874, R878A); assay: fluorescence polarization DNA competition and affinity assays, R878A mutant; assay type: binding; details: with AZ0108
# Procedure: FIG. 4B) Helical domain (pink cartoon) movement observed during the simulation, the red arrows indicate length and direction of movement. FIG. 4C) The residue-residue distance observed between the Ca atoms R878-D770 and Y889-V758, the increased distance sampling corresponds to the helical domain movement. FIG. 4D) PARP-1 WT, D770A, or R878A (40 nM) was incubated with a dumbbell DNA probe carrying an internal FAM group and a central nick at 20 nM with or without compound (25 μM) for 30 minutes. An unlabeled competitor was added and the decrease in fluorescence polarization was measured across time. FIG. 4E) The Kd of PARP-1 WT, D770A, or R878A for a DNA dumbbell probe containing a central nick (5 nM) was measured in a fluorescence polarization assay with and without inhibitor (5 μM). Error bars represent Standard Error of the Mean (SEM) (n=3).
# [2] = system: Ewing sarcoma cell line EW-8; assay: ES-8 viability screen (CellTiter-Glo); assay type: cell-based
# Procedure: Cell viability was measured using the CellTiter-Glo (Promega, G7573) assay and read using an Envision (PerkinElmer) plate reader. Compound source plates (96-well) were prepared by solubilizing each drug in DMSO to a maximum concentration of 1-50 mM, then arraying samples in 10-point dose-response with 3-fold dilution. Positive and negative controls (staurosporine at 10 mM and DMSO, respectively) were added to the source plates. Drug was transferred from the source plate to the assay plate using a Biomek FX (Beckman Coulter) liquid handler equipped with a pin tool which transferred ˜100 nl into a final volume of 100 μl, resulting in ˜1000-fold dilution. At least two biological replicates (assay performed on different day with same drug plate and independent cell preparation) were obtained for each drug. To analyze the assay, the relative light unit signal in each well was first log 2 transformed, then normalized by subtracting the mean of the negative controls wells on each plate.
# (§1) FIGS. 6A-6E. […] 0.1 μM ad-olaparib (chemical structure indicated in panel a) was added to the cells for 1 hour before undergoing a UV treatment for 5 minutes in cold PBS. Cells were lysed and sonicated in PBS (1% Triton X-100+1% SDS), clicked with TAMRA-azide and run out on SDS-PAGE. The gel was imaged for TAMRA and probed for PARP-1 (Bethyl Laboratories), and alpha-tubulin (X). FIGS. 6B, 6D) Quantification of western blot images. TAMRA or ADPr values are normalized to PARP-1 within each replicate and plotted as percentage compared to DMSO. Error bars indicate SEM (n=3-4). Statistical significance of off-rate calculated via multiple t-tests (p<0.05). […] Cells were subsequently treated with PARGi (10 μM) for 30 minutes, lysed using RIPA buffer, run out on SDS-PAGE, and probed for ADPr (Cell Signaling) and PARP-1 (Bethyl Laboratories). FIG. 6E) ES-8 cells were treated with indicated concentration of inhibitors for 72 hours before measuring cell viability using the CellTiter-Glo kit (Promega G7573). IC50 values were calculated using R statistical software.
# [3] = target: T1, PARP-1 (Homo sapiens, UniProt P09874); assay: in-cell competition labeling with ad-olaparib photoaffinity probe; assay type: cell-based
# T1 sequence (P09874 whole entry): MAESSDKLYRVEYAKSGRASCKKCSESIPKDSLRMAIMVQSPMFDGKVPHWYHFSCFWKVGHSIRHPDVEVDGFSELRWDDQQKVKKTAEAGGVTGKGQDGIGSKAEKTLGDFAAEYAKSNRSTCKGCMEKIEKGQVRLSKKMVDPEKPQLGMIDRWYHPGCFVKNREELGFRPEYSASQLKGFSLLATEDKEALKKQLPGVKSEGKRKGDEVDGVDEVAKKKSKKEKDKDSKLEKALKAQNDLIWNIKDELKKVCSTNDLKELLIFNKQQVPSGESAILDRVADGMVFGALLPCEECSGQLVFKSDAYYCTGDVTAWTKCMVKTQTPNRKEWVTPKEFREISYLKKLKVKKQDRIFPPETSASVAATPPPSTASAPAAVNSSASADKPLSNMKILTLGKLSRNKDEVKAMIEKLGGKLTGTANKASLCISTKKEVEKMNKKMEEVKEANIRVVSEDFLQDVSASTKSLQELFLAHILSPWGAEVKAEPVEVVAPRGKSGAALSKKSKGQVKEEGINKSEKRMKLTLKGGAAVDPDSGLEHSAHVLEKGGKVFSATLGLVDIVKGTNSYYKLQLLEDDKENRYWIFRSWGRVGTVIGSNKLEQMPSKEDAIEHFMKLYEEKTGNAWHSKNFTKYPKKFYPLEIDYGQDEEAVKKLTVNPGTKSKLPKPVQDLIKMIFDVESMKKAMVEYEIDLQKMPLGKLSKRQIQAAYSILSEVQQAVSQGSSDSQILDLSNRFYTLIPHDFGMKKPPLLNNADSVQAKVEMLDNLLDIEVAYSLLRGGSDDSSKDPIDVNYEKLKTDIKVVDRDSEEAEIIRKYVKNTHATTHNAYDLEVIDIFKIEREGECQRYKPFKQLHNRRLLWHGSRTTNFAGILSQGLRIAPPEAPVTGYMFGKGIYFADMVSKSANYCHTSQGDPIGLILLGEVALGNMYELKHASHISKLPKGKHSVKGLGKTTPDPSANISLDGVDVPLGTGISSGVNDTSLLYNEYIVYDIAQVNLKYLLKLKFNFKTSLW
# Procedure: Photocrosslinking in intact cells. HEK293 CRL and PARP-1 KO cells were grown in DMEM for 2 days in a 60 mm dish for 2 days to reach 80-90% confluency. […] Cells were then washed once with PBS, covered with PBS and irradiated for 5 min in the RPR-100 Photochemical Reactor (Rayonet) equipped with 350 nm lamps at 4° C. Cells were lysed on ice in 1% SDS, 1% Triton X-100 and EDTA-free protease inhibitor cocktail (Roche) in PBS for 10 min and then probe sonicated to shear the nuclear DNA. Protein concentration was determined with Bio-Rad Protein assay. The lysate was diluted in PBS to a final Click reaction concentration of 2 mg/mL.
# Click Chemistry. Reaction was started by mixing 30 μL of each sample with 15 μL of PBS based 3× Click reaction mixture containing (final concentrations): 100 μM Tris[(1-benzyl-1H-1,2,3triazol-4-yl)methyl]amine (TBTA, Click Chemistry Tools), 1 mM CuSO4, 40 μM tetramethylrhodamine (TAMRA)-azide (Click Chemistry Tools), 1 mM Tris(2-carboxyethyl)phosphine hydrochloride (TCEP, Thermo Fisher) and 15% tert-Butyl alcohol, and let to procced for 1 h at RT while gently shaking. Reactions were stopped by adding 4× Laemmli sample buffer and boiling at 95° C. for 5 min.
# In gel fluorescence, western blotting and quantification. Samples were loaded to 8 or 10% SDS-polyacrylamide gels and run until the dye front left the gel. First, in-gel fluorescence was detected with ChemiDoc XRS+ (Biorad) using Rhodamine filter and then the proteins were transferred on nitrocellulose membrane, the membrane was blocked and probed for PARP-1 (1:3000) and alpha-tubulin (1:1000). Both antibodies were from cell signaling. Band intensities we quantified with ImageJ.
# as §1
# [4] = system: HEK 293T cells; assay: cell proliferation (MTT) assay; assay type: cell-based, human
# Procedure: HEK 293T or HEK 293 PARP-1 KO cells were seeded in a 96 well plate at 1000-2000 cells per well. Following an overnight incubation, MTT reagent, 3-(4,5-dimethylthiazol-2-yl)-2,5-diphenyltetrazolium bromide, or a dosage curve of indicated inhibitor was added to each well in quadruplicate. Following a 3-hour incubation at 37° C., wells containing MTT reagent, were aspirated and lysed with 100 μl DMSO. These wells acting as a no growth control were collected, saved @ −20° C., and replaced with 100 μl water. The plate was placed back into the incubator for a total of 72 hours of inhibitor treatment prior to MTT reagent being added for a final time. Following a 3 hour incubation with the reagent, wells were aspirated, and 100 μl DMSO were added to each well, while the no growth control sample was added back to the plate. Absorbance was read on a SpectraMaxi3 plate reader (Molecular Devices). Percent growth was calculated for analysis. Statistical significance was assigned using individual t-tests between conditions for each inhibitor dosage.
# Error bars represent SEM. […] Error bars represent SEM. […] Error bars represent SEM.
# [5] = target: T1, PARP-1; assay: fluorescence polarization DNA binding affinity assay; details: 5 μM inhibitor
# Text: The full-length WT PARP-1 protein used in these assays was purified as described previously (30).
# Chain of R878A PARP-1 (P09874 whole entry R878A, the tested form may be a part): as the sequence (P09874 whole entry) above, with R878A counted along it
substance,measurement,setting,value
"(S)-4-(difluoro(3-(6-methyl-3-(trifluoromethyl)-5,6,7,8-tetrahydro-[1,2,4]triazolo[4,3-a]pyrazine-7-carbonyl)phenyl)methyl)phthalazin-1(2H)-one [AZ0108]",DNA binding to R878A PARP-1,[1],similarly unaffected
same,Fold Difference to Pip6,[2]; ratio of EC50 values,86
same,EC50,"[2]; viability, 72 h",0.02 µM and 0.0209 µM
same,labeling of PARP-1 by ad-olaparib after pre-treatment,"[3]; 10 μM inhibitor, 0.1 μM ad-olaparib",substantially blocked
same,recovery of labeling of PARP-1 by ad-olaparib after washout,[3]; washout (3 h),more than 2 fold
same,EC50,"[4]; MTT, 72 h, read-out: EC50 cell growth",0.03 µM and 0.0297 µM
same,right-shift of the EC50 value for AZ0108 on cell growth,[4]; dual-treated with olaparib,10 fold
same,increase of the affinity of PARP-1 for DNA,[5]; DNA dumbbell probe with central nick 5 nM,4 fold
same,effect on the affinity of PARP-1 for nicked DNA,[5]; compared to DMSO control,more pronounced effect on DNA binding to PARP-1
